According to ChEMBL document CHEMBL1141742, “A Novel Insect Antifeedant Nonprotein Amino Acid from Calotropis gigantea” (1998):
Activity calls are given as the source filed them. The calls are words filed in the database; no cut-off is given here.

Columns and labels:
Schistocerca gregaria [1] = test: Antifeedant activity against 5th instar nymphs of Schistocerca gregaria assessed as feeding reduction at 1 ng/cm'2 by filter paper based feeding assay; type: functional, organism-based
Schistocerca gregaria [2] = test: Antifeedant activity against 5th instar nymphs of Schistocerca gregaria assessed as feeding reduction at 6.6 ug/cm'2 by maize leave choice feeding assay; type: functional; set-up: scale not given: the % may be the effect or the level left
Schistocerca gregaria [3] = test: Antifeedant activity against 5th instar nymphs of Schistocerca gregaria assessed as feeding reduction at 5 ug/cm'2 by maize leave choice feeding assay; type: functional; set-up: scale not given: the % may be the effect or the level left
Schistocerca gregaria [4] = test: Antifeedant activity against 5th instar nymphs of Schistocerca gregaria assessed as feeding reduction at 3.2 ug/cm'2 by maize leave choice feeding assay; type: functional; set-up: scale not given: the % may be the effect or the level left
Schistocerca gregaria [5] = test: Antifeedant activity against 5th instar nymphs of Schistocerca gregaria assessed as feeding reduction at 1.6 ug/cm'2 by maize leave choice feeding assay; type: functional; set-up: scale not given: the % may be the effect or the level left

Q: `C/C=C(\C)C(=O)O[C@H]1C[C@@H](OC(C)=O)[C@@]2(C(=O)OC)CO[C@H]3[C@@H](O)[C@@](C)([C@]45O[C@@]4(C)[C@@H]4C[C@H]5O[C@@H]5OC=C[C@@]54O)[C@H]4[C@]1(CO[C@]4(O)C(=O)OC)[C@@H]32` was tested. Which Activity (Schistocerca gregaria [1]) did it give?
A: Active

Q: For `CCOC(=O)Nc1ccc([C@H](NC(C)=O)C(=O)O)cc1` [GIGANTICINE], which Activity (Schistocerca gregaria [2]) is on record?
A: 90%

Q: What about the Activity (Schistocerca gregaria [3]) of the same molecule?
A: 80%

Q: And the Activity (Schistocerca gregaria [4])?
A: 68%

Q: And the Activity (Schistocerca gregaria [5])?
A: 55%
